We go through one molecule from US11160767B2, “4,4′-trans-dihydroxystilbene for use in treating cancer” (The George Washington University, a Congressionally …, priority 2017, dated 2021).

The test system of one test is plasmid DNA. Kind of test: Incubation with plasmid DNA, UV absorption. It counts as binding. The source says: (§1) In addition, resveratrol has been previously reported to interact with DNA grooves (Usha et al., 2006). […] A similar result with And-1, RRM1, and RRM2 was also observed in DHS resistant HCT116 cells (data not shown).
A further test concerns SKOV3. Kind of test: DHS and cisplatin, SKOV3 cells. It counts as cell-based, human. An excerpt:
The effect of DHS on a human SKOV3 ovarian cell line and its cisplatin-resistant subline, SKOV3/CP7, was investigated.

Test [1] relates to HCT116 cells. Kind of test: dNTP amount in treated cells. It counts as cell-based, human. An excerpt:
The effect of DHS on dNTP synthesis was investigated by measuring the amount of dNTPs in DHS-treated HCT116 cells.

For a further test, the system named is Topoisomerase II. Kind of test: Topoisomerase II decatenation assay. The test is classed as biochemical.
From the text: as §1

In another test the target is T1, And-1 (Homo sapiens, UniProt O75717).
T1 construct: endogenous in cells; host or cells: HCT116
T1 sequence (O75717 whole entry): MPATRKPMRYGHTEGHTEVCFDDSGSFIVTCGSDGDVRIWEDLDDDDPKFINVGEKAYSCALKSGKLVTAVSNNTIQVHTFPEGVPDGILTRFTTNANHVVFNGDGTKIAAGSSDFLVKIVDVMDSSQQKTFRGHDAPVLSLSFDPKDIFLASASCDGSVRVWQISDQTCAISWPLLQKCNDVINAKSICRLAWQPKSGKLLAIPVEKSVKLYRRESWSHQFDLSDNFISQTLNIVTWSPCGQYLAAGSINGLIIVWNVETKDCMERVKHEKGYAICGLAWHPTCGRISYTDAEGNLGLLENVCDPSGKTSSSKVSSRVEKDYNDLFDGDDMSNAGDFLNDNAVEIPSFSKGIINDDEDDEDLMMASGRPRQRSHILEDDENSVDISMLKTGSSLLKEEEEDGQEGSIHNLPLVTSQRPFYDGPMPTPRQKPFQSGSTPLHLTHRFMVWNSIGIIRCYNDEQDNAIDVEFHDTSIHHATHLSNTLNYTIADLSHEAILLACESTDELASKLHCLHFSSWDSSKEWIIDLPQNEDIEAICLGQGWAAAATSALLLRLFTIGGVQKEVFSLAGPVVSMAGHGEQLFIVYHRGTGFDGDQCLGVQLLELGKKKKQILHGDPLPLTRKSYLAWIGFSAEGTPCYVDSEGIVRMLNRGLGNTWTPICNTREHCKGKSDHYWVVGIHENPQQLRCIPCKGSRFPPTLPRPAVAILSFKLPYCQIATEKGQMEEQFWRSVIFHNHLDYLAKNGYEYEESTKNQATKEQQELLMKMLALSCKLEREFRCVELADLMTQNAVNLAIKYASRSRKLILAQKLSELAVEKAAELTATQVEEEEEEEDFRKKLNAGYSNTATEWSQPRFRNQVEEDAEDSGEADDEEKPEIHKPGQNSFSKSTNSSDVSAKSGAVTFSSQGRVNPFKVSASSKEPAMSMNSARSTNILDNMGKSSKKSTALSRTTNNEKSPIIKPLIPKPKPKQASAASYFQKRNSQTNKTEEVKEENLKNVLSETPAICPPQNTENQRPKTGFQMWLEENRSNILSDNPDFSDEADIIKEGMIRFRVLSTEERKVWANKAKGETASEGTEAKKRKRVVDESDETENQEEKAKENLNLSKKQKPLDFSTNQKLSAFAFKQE
The test can be described thus: Cellular thermal shift assay, And-1. It counts as cell-based. The following applies: HCT116 cells. As to the method:
In order to study the mechanisms by which DHS induces down-regulation of And-1, RRM1, and RRM2 proteins, DHS-resistant HCT116 cells were generated (FIG. 9C). […] Next, it was investigated whether DHS directly binds to And-1, RRM1, or RRM2. A cellular thermal shift assay (Jafari et al., 2014) was conducted for And-1 (FIG. 9E). […] A coimmunoprecipitation (CoIP) assay was conducted to determine whether And-1, RRM1, and RRM2 interact in the same complex. The result implied that […] (FIG. 9F).

The target in a further test is T2, RRM2 (Homo sapiens, UniProt P31350).
T2 construct: endogenous in cells; host or cells: HCT116
T2 sequence (P31350 1-389): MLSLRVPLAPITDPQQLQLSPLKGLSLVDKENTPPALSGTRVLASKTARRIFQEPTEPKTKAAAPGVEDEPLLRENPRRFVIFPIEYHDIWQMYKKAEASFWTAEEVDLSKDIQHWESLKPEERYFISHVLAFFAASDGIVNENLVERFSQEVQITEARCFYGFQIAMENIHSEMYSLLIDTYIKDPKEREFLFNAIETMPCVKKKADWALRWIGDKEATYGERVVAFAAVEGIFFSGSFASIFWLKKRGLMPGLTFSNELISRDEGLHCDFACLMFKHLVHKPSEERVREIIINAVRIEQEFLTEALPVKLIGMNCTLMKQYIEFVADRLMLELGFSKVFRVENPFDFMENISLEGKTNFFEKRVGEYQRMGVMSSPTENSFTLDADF
Kind of test: Thermal shift assay in HCT116 cells, RRM2. The test is classed as cell-based. How it is done:
To investigate binding of DHS to RRM1 and RRM2, a thermal shift assay was performed in HCT116 cells treated with DMSO (vehicle), resveratrol, DHS, gemcitabine, or hydroxyurea (Hu). Gemcitabine is known to bind RRM1 (Plunkett et al., 1995 and Chen et al., 2011), and Hu has been reported to bind RRM2 (Thelander et al., 1985). […] DHS stabilized RRM2 protein in a dose responsive manner (5 to 20 μM DHS; FIG. 11A). To rule out nonspecific effects of DHS on RRM2, an in vitro thermal shift assay was conducted. Purified RRM1 and RRM2 were mixed and then incubated with DHS or Hu for 4 hours before performing the assay.

The target in another test is T3, RRM1 and RRM2 proteins (Homo sapiens, UniProt P31350).
T3 construct: endogenous in cells; host or cells: HCT116
The test can be described thus: RRM1 and RRM2 protein levels by Western blot. The test is classed as cell-based. The following applies: HCT116 cells. How it is done:
Western blot analysis. Compound-treated cells were harvested and lysed. Protein extracts were subjected to electrophoresis in a SDS-polyacrylamide gel. The resolved proteins were transferred onto polyvinylidene difluoride membranes (Amersham Biosciences, Piscataway, N.J., US). After the blocking step, membranes were incubated with primary IgG antibodies, washed, and then incubated with horseradish peroxidase-conjugated anti-rabbit IgG or anti-mouse IgG secondary antibodies. Western blot signals were visualized by chemiluminescence using SuperSignal West Pico chemiluminescence reagent (Pierce, Rockford, Ill., US).
The effect of DHS treatment on And-1, RRM1, and RRM2 expression was investigated.
(A western blot detects proteins with antibodies after separation by electrophoresis.)

The test system of test [2] is HCT116 cells. The test can be described thus: Comet assay. The test is classed as cell-based, human. To be noted: 2.5 μM for 24 hours. How it is done: Comet assay. HCT116 cells were treated with DHS for 0.5 or 24 hours. Afterward, the cells were irradiated with X-rays at a dose of 20 Gy. An aliquot of 80 μL cell suspension were mixed with 400 μL 1.2% low melting point agarose and plated on Fisherfinest microscope slide (Thermo Scientific, Pittsburgh, Pa., US), which had already been layered with 120 μL 1% agarose gel. Cells were then lysed and DNA was electrophoretically separated. The gels were neutralized before staining with 60 μL of 5 μM SYBR green. The shape of the stained DNA mass in at least 50 cells in each sample was analyzed with OpenComet software (MA, US).
To investigate whether inhibition of DNA replication by DHS can trigger DNA damage, the DNA damage markers phosphor-Chk1 (pChk1, Serine 345) and phosphor-Chk2 (pChk2, Threonine 68) were analyzed in DHS-treated HCT116 cells. […] A comet assay was next used to test if DNA double strand breaks are induced by DHS.

In another test the test system is HCT116 xenograft tumor. The test can be described thus: HCT116 xenograft tumor model. It counts as in vivo, nude mice. The following applies: Day 38; DHS 50 mg/kg i.p. 14 consecutive days; cisplatin 8 mg/kg i.p.
Test [3] deals with HCT116 cells. The test can be described thus: DNA fiber assay. It counts as cell-based, human. How it is done: Thus, the effect of DHS on DNA replication and cell cycle progression was investigated. Replication fork speeds were examined by DNA fiber assay (FIG. 7A). Briefly, DHS, hydroxyurea (Hu), or Aphidicolin (Aph) was added to HCT116 cells 2 hours prior to labeling of DNA with iododeoxyuridine (IdU) and/or chlorodeoxyuridine (CldU).

Another test concerns KB, KB-Gem and KB-Hu. Kind of test: Cell survival of KB and resistant sublines. It counts as cell-based. How it is done: An oral cancer cell line, KB, and its gemcitabine-resistant and hydroxyurea resistant sublines, KB-Gem and KB-Hu, respectively, were treated with gemcitabine (FIG. 15A), hydroxyurea (FIG. 15B), or DHS (FIG. 15C).
Next, the effect of combined treatment with DHS and Gemcitabine or Hydroxyurea was investigated.

In test [4] the test system is HCT116 cells. Kind of test: BrdU incorporation by FACS. It counts as cell-based, human. To be noted: reduced from 46.6%, 1 to 20 μM DHS. An excerpt: To test whether DHS can repress DNA replication, BrdU incorporation was examined using an immunofluorescent assay. […] BrdU incorporation was tracked by fluorescence-activated cell sorting (FACS).

SMILES strings stand for the structures.

Description for HCT116 xenograft tumor: Xenograft mouse models. […] In xenograft studies, HCT116 (3×10^6 cells) and IGROV3/CP2 (5×10^6 cells) suspended in 100 μl of phosphate buffered saline (PBS, pH 7.4) were injected subcutaneously into the lower flank of the mice. Testing compounds were dissolved in DMSO/Tween 80/saline (10:10:80; v/v/v) buffer and were used to treat animals through intraperitoneal (i.p.) injection. […] The body weight of animals was measured throughout the study. Tumor diameters were measured with digital calipers, and the tumor volume in mm^3 was calculated by the formula: Volume=(width)^2×length/2.
HCT116 cells (5×10^6) were injected subcutaneously in nude mice and grown to approximately 100 mm^3 in volume. […] To study the preclinical toxicity of DHS, samples of hearts, livers, spleens, lung, and kidneys were collected on Day 38 and sections were stained for histological examination.

For `Oc1ccc(/C=C/c2ccc(O)cc2)cc1` [DHS, 4,4′-trans-dihydroxystilbene], the “UV absorption on incubation with plasmid DNA (DNA binding)” value with plasmid DNA was “increased UV absorption”. The “Sensitivity to DHS alone” value in the test on SKOV3 is recorded as “sensitive to DHS treatment alone”. In addition, the dNTP synthesis entry in the test with HCT116 cells [1] is “inhibited synthesis of dATP, dCTP, dGTP, and dTTP”. In the test on Topoisomerase II, the “Topoisomerase II activity (decatenation of kDNA)” value is reported as “inhibits Topoisomerase II activity”. In addition, the “Binding to And-1 (cellular thermal shift)” value on And-1 is recorded as “does not bind to And-1”. The “RRM2 levels in thermal shift assay (binding)” value at RRM2 was “binds to RRM2”. Further, the “RRM1 and RRM2 protein levels” value at RRM1 and RRM2 proteins is “caused down-regulation of RRM1 and RRM2 proteins”. For the same molecule, the “DNA double strand breaks (lengths of tail moments)” value with HCT116 cells [2] was “caused significant DNA double strand breaks”. Besides, the “Reduction in tumor volume as compared with the vehicle control group” value with HCT116 xenograft tumor was roughly 50%. Also, in the test with HCT116 cells [3], the “Rate of replication fork progression (folk speed)” value was “significantly reduced”. Moreover, the DNA replication stalling result in the test on HCT116 cells [3] (added 2 hours prior to labeling) is reported as “dramatically caused DNA replication stalling”. Further, the “Cell survival of resistant sublines” value in the test with KB, KB-Gem and KB-Hu (KB, KB-Gem, KB-Hu, DHS alone) is “overcame gemcitabine and hydroxyurea resistance”. For the same molecule, the “Resensitisation to gemcitabine and hydroxyurea” value with KB, KB-Gem and KB-Hu (KB-Gem and KB-Hu, 10 μM DHS) is “resensitized cultured KB-gem and KB-Hu cell lines to gemcitabine and hydroxyurea”. The molecule further yielded a BrdU incorporation in the test on HCT116 cells [4] of 9.52%.
